Test results reported in the NIST ThermoML archive (doi:10.1016/j.jct.2011.04.008).

Experiment: xn = mol fraction of the nth substance listed
Conditions: 101 kPa, Liquid; for viscosity: Capillary tube (Ostwald / Ubbelohde) method; for speed of sound: Linear variable-path acoustic interferometer; for mass density: Pycnometric method

CC(=O)OC(C)(C)C [1,1-dimethylethyl ethanoate] + Cc1ccccc1
Conditions | mass density, 298.15 K [kg/m3] | mass density, 308.15 K [kg/m3] | speed of sound, 298.15 K [m/s] | speed of sound, 308.15 K [m/s] | viscosity, 298.15 K [mPa·s] | viscosity, 308.15 K [mPa·s]
x1 = 0.0976 | 861.9 | 851.9 | 1275 | 1232 | 0.567 | 0.502
x1 = 0.1986 | 861.6 | 851.2 | 1242 | 1197 | 0.577 | 0.509
x1 = 0.2993 | 861.2 | 850.5 | 1213 | 1168 | 0.588 | 0.516
x1 = 0.3975 | 860.8 | 849.9 | 1187 | 1143 | 0.599 | 0.524
x1 = 0.4983 | 860.5 | 849.4 | 1165 | 1120 | 0.611 | 0.533
x1 = 0.5978 | 860.3 | 848.9 | 1145 | 1101 | 0.623 | 0.542
x1 = 0.6975 | 860.2 | 848.7 | 1128 | 1085 | 0.636 | 0.553
x1 = 0.7972 | 860.3 | 848.7 | 1113 | 1072 | 0.65 | 0.565
x1 = 0.8987 | 860.6 | 848.9 | 1101 | 1062 | 0.666 | 0.58
x1 = 1 | 861.1 | 849.4 | 1092 | 1055 | 0.683 | 0.596

Cc1ccccc1 [toluene] + CC(=O)OC(C)(C)C
x2 = 0
Conditions | mass density [kg/m3] | speed of sound [m/s] | viscosity [mPa·s]
298.15 K | 862.2 | 1312 | 0.556
308.15 K | 852.5 | 1270 | 0.494

CCc1ccccc1 [ethylbenzene] + CC(=O)OC(C)(C)C
x2 = 0
Conditions | mass density [kg/m3] | speed of sound [m/s] | viscosity [mPa·s]
298.15 K | 864.4 | 1325 | 0.631
308.15 K | 855.4 | 1280 | 0.569
